Measured values reported in patent US12599136B2, “Substituted isophthalic acid diamides and their use as herbicides” (Bayer Aktiengesellschaft, priority 2020, dated 2026).

Legend:
Format in all cases: in vivo
Setaria viridis [1] = test: Post-emergence herbicidal action against SETVI; conditions: visual assessment about 3 weeks after treatment
Method in brief: (§1)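 Greenhouse plants in sandy loam were sprayed at the one-leaf stage, 2 to 3 weeks after sowing, with WP or EC formulations as aqueous suspension or emulsion (600 to 800 l/ha water, 0.2% wetting agent). Visual damage was scored about 3 weeks later versus untreated controls, 0% = like control, 100% = dead.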

Avena fatua [2] = test: Pre-emergence herbicidal action against AVEFA; conditions: visual score after 3 weeks vs untreated controls
Method in brief: (§2)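 Pre-emergence soil-surface spray of formulated compound (WP or EC; 600 to 800 l/ha; 0.2% wetting agent) over seeds sown in sandy loam. After 3 weeks under greenhouse conditions, damage is estimated visually in percent against untreated plants.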

Amaranthus retroflexus [3] = test: Pre-emergence herbicidal action against AMARE; conditions: visual score after 3 weeks vs untreated controls
Method in brief: as §2

Abutilon theophrasti [4] = test: Pre-emergence herbicidal action against ABUTH; conditions: visual score after 3 weeks vs untreated controls
Method in brief: as §2

Lolium rigidum [5] = test: Post-emergence herbicidal action against LOLRI
Method in brief: as §1

Matricaria inodora [6] = test: Pre-emergence herbicidal action against MATIN; conditions: visual score after 3 weeks vs untreated controls
Method in brief: as §2

Viola tricolor [7] = test: Post-emergence herbicidal action against VIOTR
Method in brief: as §1

Pharbitis purpurea [8] = test: Pre-emergence herbicidal action against PHBPU; conditions: visual score after 3 weeks vs untreated controls
Method in brief: as §2

Avena fatua [9] = test: Post-emergence herbicidal action against AVEFA; conditions: visual assessment about 3 weeks after treatment
Method in brief: as §1

Alopecurus myosuroides [10] = test: Pre-emergence herbicidal action against ALOMY; conditions: visual score after 3 weeks vs untreated controls
Method in brief: as §2

Matricaria inodora [11] = test: Post-emergence herbicidal action against MATIN; conditions: visual assessment about 3 weeks after treatment
Method in brief: as §1

Hordeum murinum [12] = test: Pre-emergence herbicidal action against HORMU; conditions: visual score after 3 weeks vs untreated controls
Method in brief: as §2

Veronica persica [13] = test: Post-emergence herbicidal action against VERPE; conditions: 80 g/ha, visual assessment about 3 weeks after treatment
Method in brief: as §1

Stellaria media [14] = test: Post-emergence herbicidal action against STEME; conditions: visual assessment about 3 weeks after treatment
Method in brief: as §1

Cyperus esculentus [15] = test: Pre-emergence herbicidal action against CYPES; conditions: visual score after 3 weeks vs untreated controls
Method in brief: as §2

Setaria viridis [16] = test: Pre-emergence herbicidal action against SETVI
Method in brief: as §2

Alopecurus myosuroides [17] = test: Post-emergence herbicidal action against ALOMY
Method in brief: as §1

Echinochloa crus-galli [18] = test: Pre-emergence herbicidal action against ECHCG; conditions: visual score after 3 weeks vs untreated controls
Method in brief: as §2

Echinochloa crus-galli [19] = test: Post-emergence herbicidal action against ECHCG; conditions: visual assessment about 3 weeks after treatment
Method in brief: as §1

Polygonum convolvulus [20] = test: Post-emergence herbicidal action against POLCO; conditions: 80 g/ha, visual assessment about 3 weeks after treatment
Method in brief: as §1

Polygonum convolvulus [21] = test: Pre-emergence herbicidal action against POLCO; conditions: 320 g/ha
Method in brief: as §2

Abutilon theophrasti [22] = test: Post-emergence herbicidal action against ABUTH
Method in brief: as §1

Hordeum murinum [23] = test: Post-emergence herbicidal action against HORMU
Method in brief: as §1

Veronica persica [24] = test: Pre-emergence herbicidal action against VERPE; conditions: 320 g/ha
Method in brief: as §2

Cyperus esculentus [25] = test: Post-emergence herbicidal action against CYPES; conditions: 80 g/ha, visual assessment about 3 weeks after treatment
Method in brief: as §1

Lolium rigidum [26] = test: Pre-emergence herbicidal action against LOLRI; conditions: 320 g/ha
Method in brief: as §2

Amaranthus retroflexus [27] = test: Post-emergence herbicidal action against AMARE; conditions: visual assessment about 3 weeks after treatment
Method in brief: as §1

Pharbitis purpurea [28] = test: Post-emergence herbicidal action against PHBPU; conditions: visual assessment about 3 weeks after treatment
Method in brief: as §1

Stellaria media [29] = test: Pre-emergence herbicidal action against STEME
Method in brief: as §2

Viola tricolor [30] = test: Pre-emergence herbicidal action against VIOTR
Method in brief: as §2

CCN(C)C(=O)c1c(C(F)(F)F)ccc(C(=O)Nc2nnnn2CC)c1Cl [Example 2-124]
Post-emergence action against SETVI in % (Setaria viridis [1]; 5 g/ha): 100%
Post-emergence action against SETVI in % (Setaria viridis [1]; 20 g/ha): 100%
Post-emergence action against SETVI in % (Setaria viridis [1]; 80 g/ha): 100%
Pre-emergence action against AVEFA (Avena fatua [2]; 80 g/ha): 90%
Pre-emergence action against AVEFA (Avena fatua [2]; 320 g/ha): 100%
Pre-emergence action against AMARE (Amaranthus retroflexus [3]; 20 g/ha): 90%
Pre-emergence action against AMARE (Amaranthus retroflexus [3]; 80 g/ha): 100%
Pre-emergence action against AMARE (Amaranthus retroflexus [3]; 320 g/ha): 100%
Pre-emergence action against ABUTH (Abutilon theophrasti [4]; 20 g/ha): 100%
Pre-emergence action against ABUTH (Abutilon theophrasti [4]; 80 g/ha): 100%
Pre-emergence action against ABUTH (Abutilon theophrasti [4]; Dosage column 320 g/ha (heading prints 3200 g/ha)): 100%
Post-emergence action against LOLRI in % (Lolium rigidum [5]; 20 g/ha): 90%
Post-emergence action against LOLRI in % (Lolium rigidum [5]; 80 g/ha): 100%
Pre-emergence action against MATIN (Matricaria inodora [6]; 20 g/ha): 80%
Pre-emergence action against MATIN (Matricaria inodora [6]; 80 g/ha): 90%
Pre-emergence action against MATIN (Matricaria inodora [6]; 320 g/ha): 100%
Post-emergence action against VIOTR in % (Viola tricolor [7]; 5 g/ha): 100%
Post-emergence action against VIOTR in % (Viola tricolor [7]; 20 g/ha): 100%
Post-emergence action against VIOTR in % (Viola tricolor [7]; 80 g/ha): 100%
Pre-emergence action against PHBPU (Pharbitis purpurea [8]; 80 g/ha): 80%
Pre-emergence action against PHBPU (Pharbitis purpurea [8]; 320 g/ha): 90%
Post-emergence action against AVEFA in % (Avena fatua [9]; 5 g/ha): 80%
Post-emergence action against AVEFA in % (Avena fatua [9]; 20 g/ha): 100%
Post-emergence action against AVEFA in % (Avena fatua [9]; 80 g/ha): 100%
Pre-emergence action against ALOMY (Alopecurus myosuroides [10]; 80 g/ha): 80%
Pre-emergence action against ALOMY (Alopecurus myosuroides [10]; 320 g/ha): 90%
Post-emergence action against MATIN in % (Matricaria inodora [11]; 5 g/ha): 90%
Post-emergence action against MATIN in % (Matricaria inodora [11]; 20 g/ha): 100%
Post-emergence action against MATIN in % (Matricaria inodora [11]; 80 g/ha): 100%
Pre-emergence action against HORMU (Hordeum murinum [12]; 80 g/ha): 80%
Pre-emergence action against HORMU (Hordeum murinum [12]; 320 g/ha): 90%
Post-emergence action against VERPE in % (Veronica persica [13]): 100%
Post-emergence action against STEME in % (Stellaria media [14]; 5 g/ha): 100%
Post-emergence action against STEME in % (Stellaria media [14]; 20 g/ha): 100%
Post-emergence action against STEME in % (Stellaria media [14]; 80 g/ha): 100%
Pre-emergence action against CYPES (Cyperus esculentus [15]; 20 g/ha): 100%
Pre-emergence action against CYPES (Cyperus esculentus [15]; 80 g/ha): 100%
Pre-emergence action against CYPES (Cyperus esculentus [15]; 320 g/ha): 100%
Pre-emergence action against SETVI (Setaria viridis [16]; 20 g/ha): 90%
Pre-emergence action against SETVI (Setaria viridis [16]; 80 g/ha): 100%
Pre-emergence action against SETVI (Setaria viridis [16]; 320 g/ha): 100%
Post-emergence action against ALOMY (Alopecurus myosuroides [17]; 5 g/ha): 90%
Post-emergence action against ALOMY (Alopecurus myosuroides [17]; 20 g/ha): 100%
Post-emergence action against ALOMY (Alopecurus myosuroides [17]; 80 g/ha): 100%
Pre-emergence action against ECHCG (Echinochloa crus-galli [18]; 80 g/ha): 90%
Pre-emergence action against ECHCG (Echinochloa crus-galli [18]; 320 g/ha): 100%
Post-emergence action against ECHCG in % (Echinochloa crus-galli [19]; 20 g/ha): 100%
Post-emergence action against ECHCG in % (Echinochloa crus-galli [19]; 80 g/ha): 100%
Post-emergence action against POLCO in % (Polygonum convolvulus [20]): 100%
Pre-emergence action against POLCO (Polygonum convolvulus [21]): 80%
Post-emergence action against ABUTH (Abutilon theophrasti [22]; 5 g/ha): 100%
Post-emergence action against ABUTH (Abutilon theophrasti [22]; 20 g/ha): 100%
Post-emergence action against ABUTH (Abutilon theophrasti [22]; 80 g/ha): 100%
Post-emergence action against HORMU in % (Hordeum murinum [23]; 20 g/ha): 90%
Post-emergence action against HORMU in % (Hordeum murinum [23]; 80 g/ha): 100%
Pre-emergence action against VERPE (Veronica persica [24]): 100%
Post-emergence action against CYPES in % (Cyperus esculentus [25]): 90%
Pre-emergence action against LOLRI (Lolium rigidum [26]): 90%
Post-emergence action against AMARE in % (Amaranthus retroflexus [27]; 5 g/ha): 100%
Post-emergence action against AMARE in % (Amaranthus retroflexus [27]; 20 g/ha): 100%
Post-emergence action against AMARE in % (Amaranthus retroflexus [27]; 80 g/ha): 100%
Post-emergence action against PHBPU in % (Pharbitis purpurea [28]; 5 g/ha): 80%
Post-emergence action against PHBPU in % (Pharbitis purpurea [28]; 20 g/ha): 90%
Post-emergence action against PHBPU in % (Pharbitis purpurea [28]; 80 g/ha): 90%
Pre-emergence action against STEME (Stellaria media [29]; 20 g/ha): 90%
Pre-emergence action against STEME (Stellaria media [29]; 80 g/ha): 90%
Pre-emergence action against STEME (Stellaria media [29]; 320 g/ha): 90%
Pre-emergence action against VIOTR (Viola tricolor [30]; 20 g/ha): 80%
Pre-emergence action against VIOTR (Viola tricolor [30]; 80 g/ha): 80%
Pre-emergence action against VIOTR (Viola tricolor [30]; 320 g/ha): 100%
